Values quoted from earlier work in patent EP4527389A1 (Laboratorios Farmacéuticos Rovi S.A., priority 2022, dated 2023).

tested on: not given; settings: daily paroxetine 20 mg in patients stabilized on risperidone (4 to 8 mg/day)

| SMILES | decrease of 9-hydroxyrisperidone concentrations | increase of concentrations of the active moiety (the sum of risperidone plus 9-hydroxyrisperidone) | increase of mean plasma concentrations of risperidone |
| --- | --- | --- | --- |
| Fc1ccc([C@@H]2CCNC[C@H]2COc2ccc3c(c2)OCO3)cc1 [paroxetine] | approximately 10% | approximately 1.4 fold | approximately 4 fold |

target: CYP2D6 (cytochrome P450 2D6) enzyme (Homo sapiens, UniProt P10635); settings: three categories: strong, moderate, weak
Sequence (P10635 whole entry): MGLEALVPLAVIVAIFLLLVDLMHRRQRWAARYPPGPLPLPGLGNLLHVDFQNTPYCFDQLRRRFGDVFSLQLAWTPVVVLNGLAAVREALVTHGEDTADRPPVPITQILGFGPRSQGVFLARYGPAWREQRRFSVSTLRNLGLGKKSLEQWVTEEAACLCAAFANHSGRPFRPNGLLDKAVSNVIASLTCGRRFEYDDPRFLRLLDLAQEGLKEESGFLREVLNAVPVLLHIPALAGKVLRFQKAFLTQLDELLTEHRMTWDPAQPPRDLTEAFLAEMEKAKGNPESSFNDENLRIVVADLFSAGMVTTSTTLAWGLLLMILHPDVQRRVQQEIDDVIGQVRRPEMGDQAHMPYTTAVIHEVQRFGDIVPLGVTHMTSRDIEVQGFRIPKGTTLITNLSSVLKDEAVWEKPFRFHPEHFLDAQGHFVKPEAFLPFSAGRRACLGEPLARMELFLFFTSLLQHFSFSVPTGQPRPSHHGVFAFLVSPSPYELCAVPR

| SMILES | CYP2D6 enzyme inhibitor category |
| --- | --- |
| Nc1nc(CC(=O)Nc2ccc(CCNC[C@H](O)c3ccccc3)cc2)cs1 [mirabegron] | moderate inhibitor |
| CN(C/C=C/C#CC(C)(C)C)Cc1cccc2ccccc12 [terbinafine] | strong inhibitor |
| CN1C(=O)CC(=O)N(c2ccccc2)c2cc(Cl)ccc21 [clobazam] | weak inhibitor |
| CN(C)CCC[C@@]1(c2ccc(F)cc2)OCc2cc(C#N)ccc21 [escitalopram] | weak inhibitor |
| CN/C(=N/CCSCc1nc[nH]c1C)NC#N [cimetidine] | weak inhibitor |
| CC(C)c1nc(CN(C)C(=O)N[C@@H](CCN2CCOCC2)C(=O)N[C@H](CC[C@H](Cc2ccccc2)NC(=O)OCc2cncs2)Cc2ccccc2)cs1 [cobicistat] | weak inhibitor |
| C[C@@H](NCCCc1cccc(C(F)(F)F)c1)c1cccc2ccccc12 [cinacalcet] | moderate inhibitor |
| CC(CCc1ccccc1)NCC(O)c1ccc(O)c(C(N)=O)c1 (stereo not drawn) [labetalol] | weak inhibitor |
| C[C@H]1CNCCc2ccc(Cl)cc21 [lorcaserin] | moderate inhibitor |
| Fc1ccc([C@@H]2CCNC[C@H]2COc2ccc3c(c2)OCO3)cc1 [paroxetine] | strong inhibitor |
| CN[C@H]1CC[C@@H](c2ccc(Cl)c(Cl)c2)c2ccccc21 [sertraline] | weak inhibitor |
| Cc1ccc(-c2cc(C(F)(F)F)nn2-c2ccc(S(N)(=O)=O)cc2)cc1 [celecoxib] | weak inhibitor |
| C[C@]12CC[C@H](O)CC1=CC[C@@H]1[C@@H]2CC[C@]2(C)C(c3cccnc3)=CC[C@@H]12 [abiraterone] | moderate inhibitor |
| CCCS(=O)(=O)Nc1ccc(F)c(C(=O)c2c[nH]c3ncc(-c4ccc(Cl)cc4)cc23)c1F [vemurafenib] | weak inhibitor |
| C=C[C@H]1C[N@@]2CC[C@H]1C[C@@H]2[C@@H](O)c1ccnc2ccc(OC)cc12 [quinidine] | strong inhibitor |
